How the values were obtained:
[1] = diets containing 0.5 percent CLA; pigs, mice, humans; U.S. Pat. No. 5,554,646; cited from earlier work
[2] = system: rat mammary tumorigenesis; conditions: administration of CLA; Birt et al. 1992; cited from earlier work
[3] = system: human melanoma, colorectal and breast cancer cells; conditions: in vitro; cited from earlier work
[4] = Peroxide value (PV) by chlorimetric ferric thiocyanate method after storage; format: physicochemical; conditions: after storage in open glass; spectrophotometric ferric thiocyanate method; unit assumed
Excerpt: The present invention also contemplates stabilization of CLA containing compounds, including but not limited to, CLA, esters of CLA, and triglycerides of CLA by preventing oxidation of the compounds. The present invention is not limited to any one mechanism. Indeed, an understanding of the mechanism of the invention is not necessary to produce the composition or perform the methods of the present invention. […] After storage in open glass, the PV of CLA was 32; in comparison, the value for linoleic acid was 370.

peroxide value (PV) [4] [meq/kg]	Compound	fat content [1]	rat mammary tumorigenesis [2]	cytotoxicity [3]
32	conjugated linoleic acid [CLA]	significant drop in fat content	inhibits rat mammary tumorigenesis	strong cytotoxic agent
370	CCCCC/C=C\C/C=C\CCCCCCCC(=O)O [linoleic acid]			

Reference: patent US7115759B2, “Conjugated linoleic acid compositions” (Natural ASA, priority 2002, dated 2006)
